Assay in all cases: inhibition of tumour cell growth, NCI panel, 48 h
Experiment [1] relates to SK-MEL-28 melanoma.
Experiment [2] deals with IGROV1 ovarian.
In experiment [3] the test system is A498 renal.
Experiment [4] has as its system COLO 205 colon.
Experiment [5] deals with DU-145 prostate.
Experiment [6] deals with SW-620 colon.
The test system of experiment [7] is MALME-3M melanoma.
The test system of experiment [8] is HOP-92 NSCLC.

Each structure is given as a SMILES string. Several values for one entry are separate records, joined by “and”; a condition that tells them apart may be missing. Equal values may be shown once.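 Compound exposure: 48 hours, 5 concentrations, 96-well plates. GI50 = concentration required for 50% inhibition of growth. TGI marks complete inhibition of growth.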

Take `CN(C)C(=O)SC1=C(c2c(Cl)cccc2Cl)C(=O)c2ccccc21`: the GI50 in experiment [1] was 3.16 µM; in experiment [2] it was 4.78 µM; in experiment [3], 16.1 µM; in experiment [4], 2.22 µM; in experiment [5] it was 2.4 µM; in experiment [6], 2.17 µM. The GI50 is 1.66 µM in experiment [7] and 1.96 µM in experiment [8]. Besides, the TGI in experiment [1] came out at 8.89 µM; in experiment [2], 11.4 µM; in experiment [3], 31.7 µM; in experiment [4], 4.42 µM; in experiment [5], 5.61 µM; in experiment [6], 5.01 µM. The TGI in experiment [7] was found to be 3.74 µM; in experiment [8], 8.31 µM.
Turning to `O=c1[nH]c2cc(Cl)c(Cl)cc2n2cc3ccccc3c12`, the GI50 was 33 µM in experiment [1]; 17.4 µM in experiment [2]; 15.8 µM in experiment [3]; 29.6 µM in experiment [4]; 18 µM in experiment [5]; 15.8 µM in experiment [6]. Further, the GI50 in experiment [7] is 17.1 µM; in experiment [8], 18.4 µM. The TGI in experiment [1] is > 100 µM; in experiment [2] it was 31.2 µM; in experiment [3], 29.9 µM; in experiment [4], > 100 µM; in experiment [5], 31.8 µM; in experiment [6] it was 29.2 µM. The values for the TGI in experiment [7] and in experiment [8] were 32.7 µM and 34.7 µM, respectively.
On to `CC(=O)Oc1ccc(C2(c3ccc(OC(C)=O)cc3)C(=O)Nc3ccccc32)cc1`, for which the GI50 in experiment [1] is 35.1 µM and 34.2 µM; in experiment [2] it was 11.2 µM and 16.8 µM; in experiment [3] it was 24.6 µM and 26.8 µM; in experiment [4], 0.0741 µM and 0.155 µM; in experiment [5], 24.4 µM and 28.7 µM; in experiment [6], 36.7 µM and 31.5 µM. In addition, the GI50 in experiment [7] was 64.5 µM and > 100 µM; in experiment [8], 11.8 µM and 16.2 µM. Moreover, the TGI is > 100 µM in experiment [1]; 81.3 µM and > 100 µM in experiment [2]; > 76.1 µM and 89.8 µM in experiment [3]; 11.9 µM and 29.8 µM in experiment [4]; > 70.4 µM and 95.3 µM in experiment [5]; > 100 µM in experiment [6]. For the same compound, the results for the TGI in experiment [7] and in experiment [8] were > 100 µM and > 79.6 µM, respectively.
As to `COc1cc(O)c(C(C)=O)c(O)c1`, the TGI in experiment [1], in experiment [2], in experiment [3], in experiment [4], in experiment [5] and in experiment [6] was > 100 µM throughout. The TGI is > 100 µM in experiment [7] and 90.8 µM in experiment [8].
With `Fc1c[c-]c(-c2ccccn2)c(F)c1.[CH3-].[Pt+2].c1ccc(P(C[PH+](c2ccccc2)c2ccccc2)c2ccccc2)cc1`, the GI50 in experiment [1] was 0.512 µM; in experiment [2] it was 0.47 µM; in experiment [3], 0.712 µM; in experiment [4], 0.485 µM; in experiment [5], 1.06 µM; in experiment [6] it was 0.52 µM. Also, the results for the GI50 in experiment [7] and in experiment [8] were 0.342 µM and 0.512 µM, respectively. In addition, the TGI turned out to be 1.52 µM in experiment [1]; 1.86 µM in experiment [2]; 1.58 µM in experiment [3]; 2.07 µM in experiment [4]; 6.47 µM in experiment [5]; 1.49 µM in experiment [6]. Further, the values for the TGI in experiment [7] and in experiment [8] were 0.919 µM and 1.34 µM, respectively.
Regarding `COc1ccc2cc(-c3c(-c4ccncc4)nc(-c4ccc(S(C)=O)cc4C)n3C)ccc2c1` (centres undefined), the GI50 in experiment [1] is > 25 µM; in experiment [2] it was 11.1 µM; in experiment [3], 8.32 µM; in experiment [4], 14.8 µM; in experiment [5], > 25 µM; in experiment [6] it was > 25 µM. The GI50 is 7.04 µM in experiment [7] and 4.66 µM in experiment [8]. The TGI in experiment [1], in experiment [2], in experiment [3], in experiment [4], in experiment [5] and in experiment [6] was > 25 µM throughout. In addition, the TGI in experiment [7] and in experiment [8] was > 25 µM throughout.
Take `COc1ccc(C(=O)C[C@]2(O)C(=O)Nc3c(Cl)ccc(Cl)c32)cc1`: the GI50 was 6.54 µM in experiment [1]; 0.531 µM in experiment [2]; 0.295 µM in experiment [3]; 0.488 µM in experiment [4]; 1.87 µM in experiment [5]; 0.379 µM in experiment [6]. Besides, the GI50 in experiment [7] was 0.503 µM; in experiment [8], 1.41 µM. For the same compound, the TGI in experiment [1] is > 100 µM; in experiment [2] it was > 100 µM; in experiment [3], 1.52 µM; in experiment [4], 9.78 µM; in experiment [5], > 55.7 µM; in experiment [6], > 100 µM. The TGI in experiment [7] was > 100 µM; in experiment [8] it was > 92.3 µM.
For the compound `COc1ccc(-c2cc(/C=C/C(=O)c3cc(OC)c(OC)c(OC)c3)[nH]n2)cc1OC`, the GI50 was 1.92 µM in experiment [1]; 2.72 µM in experiment [2]; 1.46 µM in experiment [3]; 1.75 µM in experiment [4]; 1.83 µM in experiment [5]; 1.5 µM in experiment [6]. Moreover, the GI50 in experiment [7] was 2.32 µM; in experiment [8], 1.61 µM. The TGI worked out at 4.41 µM in experiment [1]; 8.61 µM in experiment [2]; 4.99 µM in experiment [3]; 3.57 µM in experiment [4]; 4.12 µM in experiment [5]; 4.16 µM in experiment [6]. Besides, the TGI in experiment [7] was determined as 6.19 µM; in experiment [8], 5.48 µM.
Regarding `Cc1cc(=O)oc2cc(OCCn3c(C)nn(-c4ccc(Cl)cc4)c3=O)ccc12`, the GI50 in experiment [1] is 3.13 µM; in experiment [2], 35 µM; in experiment [3], 1.13 µM; in experiment [4], 2.39 µM; in experiment [5], 3.9 µM; in experiment [6] it was 2.2 µM. The GI50 is 3.85 µM in experiment [7] and 16.1 µM in experiment [8]. Also, the TGI was > 100 µM in experiment [1]; > 100 µM in experiment [2]; 31.9 µM in experiment [3]; 7.34 µM in experiment [4]; > 100 µM in experiment [5]; > 100 µM in experiment [6]. The TGI in experiment [7] and in experiment [8] was > 100 µM in each case.
Take `CCCCCCCCCCCCCCCCS(=O)(=O)c1ccc(NN)cc1`: the TGI in experiment [1], in experiment [2], in experiment [3], in experiment [4], in experiment [5] and in experiment [6] was > 10 µM throughout. Besides, the TGI in experiment [7] and in experiment [8] was > 10 µM throughout.

For the origin of these results see PubChem BioAssay (NCI).
